In patent US20230106836A1, “METHOD OF USING BIOSURFACTANT-PRODUCING BACTERIA AGAINST FUNGAL AND BACTERIAL PATHOGENS” (THE ROYAL INSTITUTION FOR THE ADVANCEMENT OF …, priority 2020, published 2023):

Columns and labels:
E. coli = assay: Diffusion plate assay of TLC fractions, organic acids and bleach; format: cell-based, Escherichia coli; settings: organic acids 1%, bleach 1.3%
Protocol: (§1) Bacterial cells were removed by centrifugation (5000×g at 4° C.) and the cell—free supernatant (CFS) was acidified to pH 2.0 with 2N HCL at 4° C. for 16 h resulting in a precipitate that was collected by centrifugation (5000×g for 10 min at 4° C.). The acid precipitate fraction (APF) was dissolved in water (100 mg/mL) and adjusted to pH 7.0 using 1N NaOH. The CFS sample and clean BHM culture medium were concentrated by freeze-drying for 48 h. All samples were stored at −80° C. until further use.
(§2) Separation of CFS and APF fractions was performed by thin layer chromatography (TLC). Acid-cleaned glass plates (20×20 cm) were coated with a thin layer of silica emulsion (160 grams of silica with 15% (w/v) calcium sulphate and with fluorescent indicator GF254 dissolved in 500 mL of double distilled water) purchased from Sigma-Aldrich and dried for 16-18 h at 22° C. Activation of silica plates was done by heating the TLC plates at 120° C. for 30 min prior to use. An amount of 100 mg of each of CFS and APF were dissolved in 400 μL of chloroform: methanol (2:1, v/v) and separated on activated TLC plates with chloroform: methanol: water (70:26:4) as the developing solvent system. Plates were observed under UV (λ=254 nm) and the retention factor (Rf) values were calculated as distance travelled by the samples over the distance travelled by solvent. Only APF separated fractions were used for bioactivity assays. Bands corresponding to the desired Rf values were scraped and collected for extraction. Bands of the same Rf value from different plates were pooled together and extracted twice with chloroform: methanol (v/v/; 2:1). The collected fractions were vacuum-concentrated for 4-6 h at −60° C. using a Speed Vac™ v78100 (Labconco Corp, Kansas City Mo., USA), re-dissolved in 50 μL of methanol and tested against target bacteria and fungi, as well as for biosurfactant activity. Methanol (50 μL) was used as a negative control.
(§3) The biosurfactant activity of the fractions was tested using the oil-spreading and the drop collapse methods, as described above. Fractions were also tested for their antimicrobial activities against a number of bacteria and fungi using the Burkholder diffusion plate method as noted above. Briefly, 10 μL of the dissolved fractions were spotted in the middle of the plates. Positive controls consisted of 10 μL of bleach and of each of the following organic acids: 1% (v/v) of acetic acid, formic acid, citric acid and lactic acid. […] Individual trials were performed in triplicate and the entire assay was repeated twice to confirm the findings.

Botrytis cinerea = assay: Antimicrobial assay of TLC fractions against fungi; format: cell-based; settings: strain F014, Botrytis cinerea; organic acids 1%, bleach 1.3%
Protocol: as §1, §2, §3

Rhizoctonia solani = assay: Antimicrobial assay of TLC fractions against fungi; format: cell-based; settings: organic acids 1%, bleach 1.3%
Protocol: as §1, §2, §3

X. campestris = assay: Diffusion plate assay of TLC fractions, organic acids and bleach; format: cell-based; settings: strain B07.007, Xanthomonas campestris; organic acids 1%, bleach 1.3%
Protocol: as §1, §2, §3

[1] = system: Salmonella enterica serovars; assay: as above; format: cell-based; settings: organic acids 1%, bleach 1.3%
Protocol: as §1
as §2, with “Only APF separated fractions were used for bioactivity assays.” left out
as §3

[2] = strain AG1-1A (ROS-2A), R. solani
[3] = strain AG3 (114), Rhizoctonia solani

SMILES	Microbial activity (clearing zone), fractions, organic acids and bleach (E. coli; strain E3-6, Escherichia coli)	Microbial activity (clearing zone), fractions, organic acids and bleach (E. coli; strain E10-6, E. coli)	Microbial activity (clearing zone), fractions, organic acids and bleach (E. coli; strain E14-6, E. coli)	Microbial activity (clearing zone), fractions, organic acids and bleach (E. coli; strain E15-6, E. coli)	Microbial activity (clearing zone), fractions, organic acids and bleach (Botrytis cinerea)	Microbial activity (clearing zone), fractions, organic acids and bleach (Rhizoctonia solani; [2])	Microbial activity (clearing zone), fractions, organic acids and bleach (Rhizoctonia solani; [3])	Microbial activity (clearing zone), fractions, organic acids and bleach (X. campestris)	Microbial activity (clearing zone), fractions, organic acids and bleach ([1]; strain MAE14, S. enterica Typhimurium)	Microbial activity (clearing zone), fractions, organic acids and bleach ([1]; strain MAE299, S. enterica Typhimurium)	Microbial activity (clearing zone), fractions, organic acids and bleach ([1]; strain MAE775, S. enterica Typhimurium)	Microbial activity (clearing zone), fractions, organic acids and bleach ([1]; strain PARC#5, S. enterica Agona)	Microbial activity (clearing zone), fractions, organic acids and bleach ([1]; strain SCS2, S. enterica I: Rough-O: e, h: e, n)	Microbial activity (clearing zone), fractions, organic acids and bleach ([1]; strain SL1, S. enterica Newport)	Microbial activity (clearing zone), fractions, organic acids and bleach ([1]; strain SL2, S. enterica Hartford)	Microbial activity (clearing zone), fractions, organic acids and bleach ([1]; strain UMR1, Salmonella enterica Typhimurium)
O=C(O)CC(O)(CC(=O)O)C(=O)O [CA]	+ ((+) clearing zone of 3 mm)	+ ((+) clearing zone of 3 mm)	+ ((+) clearing zone of 3 mm)	+ ((+) clearing zone of 3 mm)	+ ((+) clearing zone of 3 mm)	+ ((+) clearing zone of 3 mm)	+ ((+) clearing zone of 3 mm)	++ ((++) clearing zone of 4 mm)	–	–	–	–	–	–	–	–
CC(O)C(=O)O (stereo not shown) [LA]	+ ((+) clearing zone of 3 mm)	+ ((+) clearing zone of 3 mm)	+ ((+) clearing zone of 3 mm)	+ ((+) clearing zone of 3 mm)	+ ((+) clearing zone of 3 mm)	+ ((+) clearing zone of 3 mm)	+ ((+) clearing zone of 3 mm)	++ ((++) clearing zone of 4 mm)	–	–	–	–	–	–	–	–
O=CO [FA]	+++ (clearing zone of 5 mm (+++))	+++ (clearing zone of 5 mm (+++))	+++ (clearing zone of 5 mm (+++))	+++ (clearing zone of 5 mm (+++))	+++ (clearing zone of 5 mm (+++))	+++ (clearing zone of 5 mm (+++))	+++ (clearing zone of 5 mm (+++))	+++ (clearing zone of 5 mm (+++))	–	–	–	–	–	–	–	–
CC(=O)O [AA]	++ ((++) clearing zone of 4 mm)	++ ((++) clearing zone of 4 mm)	++ ((++) clearing zone of 4 mm)	++ ((++) clearing zone of 4 mm)	++ ((++) clearing zone of 4 mm)	++ ((++) clearing zone of 4 mm)	++ ((++) clearing zone of 4 mm)	+++ (clearing zone of 5 mm (+++))	++ ((++) clearing zone of 4 mm)	++ ((++) clearing zone of 4 mm)	+++ (clearing zone of 5 mm (+++))	++ ((++) clearing zone of 4 mm)	++ ((++) clearing zone of 4 mm)	++ ((++) clearing zone of 4 mm)	++ ((++) clearing zone of 4 mm)	++ ((++) clearing zone of 4 mm)
